Data as given in US20210364494A1, “CELL-SUBSTRATE IMPEDANCE MONITORING OF CANCER CELLS OF DIFFERENT LINEAGE, ORIGIN, OR STAGE” (ACEA BIOSCIENCES, INC., priority 2017, published 2021).

Legend:
Format in all cases: cell-based, human
[1] = system: NK-92-mediated cytolysis of A549 cells; assay: Inhibition of NK-92-mediated cytolysis of target cells by signaling pathway inhibitors (RT-CES)
Description: (FIG. 31A) A549 cells were seeded in the chambers of E-PLATES. Twenty four hours after seeding NK-cells at a density of 16:1 (E/T ratio) were pre-incubated with the different concentrations of the MEK inhibitor PD 98059 for thirty minutes and then added to A549 cells at the indicated time point (arrow). The viability of A549 cells were continually monitored using the RT-CES system. (FIG. 31B) The extent of NK-92 mediated cytolystic activity in the presence of MEK inhibitor was calculated at the indicated times post-NK addition as described in materials and methods section. (FIG. 31C) The effect of PI3 Kinase inhibitor Wortmannin on NK-92 mediated cytolysis of A549 cells. The cells were treated with the inhibitor as described in (FIG. 31A). (FIG. 31D) Percent cytolytic activity of NK-92 cells was calculated at the end of the experiment described in (FIG. 31C).
Cytolytic analysis. Target cells were seeded into the chambers of either 16-chamber or 96-chamber E-plate in 100 μL of media. Cell growth was dynamically monitored using the RT-CES system for a period of 24-34 hours, depending on the experiment until they reached log growth phase and formed a monolayer. […]
(§1) Inhibition of NK-mediated cytolysis of target cells by agents which block the signaling pathways leading to cytotoxicity. […] We calculated percent inhibition of cytolysis for both inhibitors at different time points after NK addition. […]

A549 cells = assay: Dynamic monitoring of drug interaction with target cells by RT-CES
Description: Drug Treatment and Cytotoxicity Assessment. […] The indicated cell numbers were seeded per chamber of ACEA's 16X or 96X E-Plate (cartridge for monitoring cell-substrate impedance) in 100 μL final volume.
In order to observe the kinetics of drug interaction with target cells, A549 non-small lung cancer cells were seeded in ACEA 96X E-Plate™ and continuously monitored until the cells reached the log growth phase at which point different concentrations of paclitaxel were added to the cells at the indicated final concentration. […] While it remains to be determined if this phenomenon is due to metabolism and inactivation of paclitaxel or due to the emergence of paclitaxel-resistant subpopulation, this experiment clearly exemplifies the tremendous advantage of real-time measurement which is offered by the RT-CES system and allows the user to the opportunity to observe and assess the entire history of drug interaction with the target cells which provides further information in addition to cell viability or cytotoxicity. The phenomenon observed in FIG. 20A would've been easily missed by traditional single-point assays such as MTT.
Yet another major advantage of using the RT-CES system to continually monitor the interaction of drugs with target cells is that the user can obtain insight into the mechanism of action of the drug of interest. […] The cells were treated with either DMSO as the vehicle control or with 100 μM Olomoucine which is a CDK inhibitor and induces cell cycle arrest either at G1→S transition or at the G2→M transition, depending on the cell line. […] The control cells treated with DMSO continue to proliferate until they reach confluence, at which time they are contact inhibited and the Cell Index recording levels off. […]
as §1

H460 cells = assay: Time-dependent cell index of cancer cells treated with anticancer drug (cell-substrate impedance)
Description: In this experiment, H460 cells were introduced into chambers of a 16X cell-substrate impedance monitoring cartridge (16X E-Plate). The cartridge was positioned on a cartridge station that was located in an incubator maintaining conditions of 37° C. and 5% CO2. The cells were cultured and treated at their exponential growth phase with different concentrations of paclitaxel. The dynamic response of the cells to different doses of paclitaxel was monitored by monitoring cell-substrate impedance in real time every 15 minutes for 50 hours after treatment using a cell-substrate impedance monitoring system. The cell-substrate impedance monitoring system calculated the cell index at each time point monitored and plotted the cell index as a function of time. […] However, the cell index reached a minimum at a time dependent on the compound concentration, between about 15 hours and 20 hours after compound addition. After that point, there was a gradual increase in cell index in these chambers.
H460 cells were introduced into chambers of a 16X cell-substrate impedance monitoring cartridge (16X E-Plate). […] The dynamic response of the cells to different doses of AC101103 was monitored by measuring impedance in real time every 30 minutes for about 20 hours after treatment on the cell-substrate monitoring system. […]

[2] = A549 cells, highest concentration

| SMILES | inhibition of NK-92-mediated cytolysis ([1]; NK-92 pre-incubated with inhibitor, then added to A549 target cells) | time dependence of percent inhibition of cytolysis ([1]; different time points after NK addition) | effect of inhibitor alone on target cell baseline (A549 cells; A549 target cells incubated with inhibitor alone, no NK cells) | time over which cell index exhibited a near-constant value (H460 cells; 33 nanomolar) | cell index response after compound addition (H460 cells; concentrations between 67 nanomolar and 500 nanomolar) | initial effect on Cell Index (with Annexin V staining) (A549 cells; [2]) | later course of Cell Index after the initial effect (A549 cells; [2]) |
| --- | --- | --- | --- | --- | --- | --- | --- |
| COc1cccc(-c2cc(=O)c3ccccc3o2)c1N [PD98059] | dose-dependently inhibited NK-92-mediated cytolysis of A549 cells | consistent inhibition of cytolysis at all the indicated time points | minimal effect on the baseline | – | – | – | – |
| CC(=O)O[C@H]1C(=O)[C@@]2(C)[C@H]([C@H](OC(=O)c3ccccc3)[C@]3(O)C[C@H](OC(=O)[C@H](O)[C@@H](NC(=O)c4ccccc4)c4ccccc4)C(C)=C1C3(C)C)[C@]1(OC(C)=O)CO[C@@H]1C[C@@H]2O [paclitaxel] | – | – | – | about 15 hours | gradual decrease in cell index | initially induces a cytotoxic effect which is mainly due to cell death | recover from the initial cytotoxic effect of the drug and start to re-proliferate |
